Read-outs that look alike come from different tables or passages of the source.
Experiments:
[1] = physchem; settings: hplc, formic acid
[2] = tested on: Meloidogyne incognita; test: Meloidogyne test (spray treatment), gall formation on lettuce roots; type: in vivo; settings: 20 ppm; 100 % = no galls found
From the text: Meloidogyne-Test (Spritzbehandlung)
Zur Herstellung einer zweckmäßigen Wirkstoffzubereitung vermischt man 1 Gewichtsteil Wirkstoff mit der angegebenen Menge Lösungsmittel und verdünnt das Konzentrat mit Wasser auf die gewünschte Konzentration. Gefäße werden mit Sand, Wirkstofflösung, Meloidogyne incognita-Ei-Larven-Suspension und Salatsamen gefüllt. Die Salatsamen keimen und die Pflänzchen entwickeln sich. An den Wurzeln entwickeln sich die Gallen. Nach der gewünschten Zeit wird die nematizide Wirkung an Hand der Gallenbildung in % bestimmt. Dabei bedeutet 100 %, dass keine Gallen gefunden wurden; 0 % bedeutet, dass die Zahl der Gallen an den behandelten Pflanzen der der unbehandelten Kontrolle entspricht. Bei diesem Test zeigen z. B. die folgenden Verbindungen der Herstellungsbeispiele eine Wirkung von ≥ 80 % bei einer Aufwandmenge von 20 ppm: • Bsp. Nr. 15, 16, 18

[3] = logP (HCOOH); settings: hplc, formic acid
[4] = tested on: Myzus persicae; test: Myzus test (spray treatment); type: in vivo; settings: foliar, read-out: Wirkung
From the text: Myzus-Test (Spritzbehandlung)
Zur Herstellung einer zweckmäßigen Wirkstoffzubereitung vermischt man 1 Gewichtsteil Wirkstoff mit den angegebenen Mengen Lösungsmittel und Emulgator und verdünnt das Konzentrat mit emulgatorhaltigem Wasser auf die gewünschte Konzentration. Chinakohlblattscheiben (Brassica pekinensis), die von allen Stadien der Grünen Pfirsichblattlaus (Myzus persicae) befallen sind, werden mit einer Wirkstoffzubereitung der gewünschten Konzentration gespritzt. Nach der gewünschten Zeit wird die Wirkung in % bestimmt. Dabei bedeutet 100 %, dass alle Blattläuse abgetötet wurden; 0 % bedeutet, dass keine Blattläuse abgetötet wurden. Bei diesem Test zeigen z. B. die folgenden Verbindungen der Herstellungsbeispiele eine Wirkung von ≥ 80 % bei einer Aufwandmenge von 500 g/ha: • Bsp. Nr. 2, 3, 31, 32, 33, 36, 37, 39, 40, 41, 42, 43, 44, 45, 46, 63, 64, 65, 66, 86, 87, 88, 90, 95, 96, 97, 99, 103

[5] = tested on: Boophilus microplus; test: Boophilus microplus test (injection); type: in vivo; settings: 20 µg/Tier; injection into abdomen; 100 % = no tick laid fertile eggs
From the text: Boophilus microplus -Test (Injektion)
Zur Herstellung einer zweckmäßigen Wirkstoffzubereitung vermischt man 1 Gewichtsteil Wirkstoff mit der angegebenen Menge Lösungsmittel und verdünnt das Konzentrat mit Lösungsmittel auf die gewünschte Konzentration. Die Wirkstofflösung wird in das Abdomen (Boophilus microplus) injiziert, die Tiere werden in Schalen überführt und in einem klimatisierten Raum aufbewahrt. Nach der gewünschten Zeit wird die Wirkung in % bestimmt. Dabei bedeutet 100%, dass keine Zecke fertile Eier gelegt hat. Bei diesem Test zeigen z. B. die folgenden Verbindungen der Herstellungsbeispiele eine Wirkung von = 80 % bei einer Aufwandmenge von 20 µg/Tier: • Bsp. Nr. 43, 44, 45, 46, 63, 64, 65, 66

[6] = tested on: Lucilia cuprina Larven; test: Lucilia cuprina test (treated horse meat, larvae); type: in vivo; settings: 100 % = all larvae killed, read-out: Abtötung
From the text: Zur Herstellung einer zweckmäßigen Wirkstoffzubereitung vermischt man 1 Gewichtsteil Wirkstoff mit der angegebenen Menge Wasser und verdünnt das Konzentrat mit Wasser auf die gewünschte Konzentration. Gefäße, die Pferdefleisch enthalten, das mit der Wirkstoffzubereitung der gewünschten Konzentration behandelt wurde, werden mit Lucilia cuprina Larven besetzt. Nach der gewünschten Zeit wird die Abtötung in % bestimmt. Dabei bedeutet 100 %, dass alle Larven abgetötet wurden; 0 % bedeutet, dass keine Larven abgetötet wurden. Bei diesem Test zeigen z. B. die folgenden Verbindungen der Herstellungsbeispiele eine Wirkung von ≥ 80 % bei einer Aufwandmenge von 100 ppm: • Bsp. Nr. 65

[7] = tested on: Tetranychus urticae; test: Tetranychus test, OP-resistant (spray treatment); type: in vivo; settings: foliar, spray on Phaseolus vulgaris leaf discs, 100 % = all spider mites killed, read-out: Wirkung
From the text: Tetranychus-Test, OP-resistent (Spritzbehandlung)
Zur Herstellung einer zweckmäßigen Wirkstoffzubereitung vermischt man 1 Gewichtsteil Wirkstoff mit den angegebenen Mengen Lösungsmittel und Emulgator und verdünnt das Konzentrat mit emulgatorhaltigem Wasser auf die gewünschte Konzentration. Bohnenblattscheiben (Phaseolus vulgaris), die von allen Stadien der Gemeinen Spinnmilbe (Tetranychus urticae) befallen sind, werden mit einer Wirkstoffzubereitung der gewünschten Konzentration gespritzt. Nach der gewünschten Zeit wird die Wirkung in % bestimmt. Dabei bedeutet 100 %, dass alle Spinnmilben abgetötet wurden; 0 % bedeutet, dass keine Spinnmilben abgetötet wurden. Bei diesem Test zeigen z. B. die folgenden Verbindungen der Herstellungsbeispiele eine Wirkung von ≥ 80 % bei einer Aufwandmenge von 100 g/ha: • Bsp. Nr. 83

[8] = 500 g/ha, spray on Brassica pekinensis leaf discs, 100 % = all aphids killed

chromatographic logP [3]	SMILES	chromatographic logP [1]	mortality at 500 g/ha [4, 8] [%]	Wirkung [5] [%]	also measured
–	CCC(N=C1NCCO1)c1ccc(C(F)(F)F)cn1 (stereo not drawn) [Beispiel 4]	0.97	–	–	–
–	CCC(N=C1NCCO1)c1ccc(C)c(C)n1 (stereo not drawn) [Beispiel 8]	0.06	–	–	–
–	CCC(N=C1NCCO1)c1ccccn1 (stereo not drawn) [Beispiel 12]	-0.01	–	–	–
1.16	CCNC(=S)N1CCOC1=NC(C)c1cccnc1 (stereo not drawn) [Beispiel 15]	–	–	–	nematizide Wirkung an Hand der Gallenbildung [2]: ≥ 80%
1.07	COCCNC(=S)N1CCOC1=NC(C)c1cccnc1 (stereo not drawn) [Beispiel 16]	–	–	–	nematizide Wirkung an Hand der Gallenbildung [2]: ≥ 80%
1.07	CCNC(=S)N1CCOC1=NC(C)c1ccncc1 (stereo not drawn) [Beispiel 18]	–	–	–	nematizide Wirkung an Hand der Gallenbildung [2]: ≥ 80%
–	c1cc(CN=C2NCCO2)cs1 [Beispiel 32]	-0.05	–	–	mortality at 500 g/ha ([4]; in Brassica rapa): ≥ 80%
–	CC(N=C1NCCO1)c1cccs1 (stereo not drawn) [Beispiel 36]	0.28	–	–	mortality at 500 g/ha ([4]; in Brassica rapa): ≥ 80%
–	C[C@H](N=C1NCCO1)c1cccs1 [Beispiel 37]	0.33	–	–	mortality at 500 g/ha ([4]; in Brassica rapa): ≥ 80%
–	c1csc(CN=C2NCCO2)c1 [Beispiel 39]	-0.08	–	–	mortality at 500 g/ha ([4]; in Brassica rapa): ≥ 80%
2.99	CNC(=S)N1CCOC1=NC(C)c1cccs1 (stereo not drawn) [Beispiel 43]	–	≥ 80	80	–
3.58	CCNC(=S)N1CCOC1=NC(C)c1cccs1 (stereo not drawn) [Beispiel 44]	–	≥ 80	80	–
3.28	COCCNC(=S)N1CCOC1=NC(C)c1cccs1 (stereo not drawn) [Beispiel 45]	–	≥ 80	80	–
3.99	CC(N=C1OCCN1C(=S)NCC(F)(F)F)c1cccs1 (stereo not drawn) [Beispiel 46]	–	≥ 80	80	–
3.02	CNC(=S)N1CCOC1=N[C@@H](C)c1cccs1 [Beispiel 63]	–	≥ 80	80	–
3.59	CCNC(=S)N1CCOC1=N[C@@H](C)c1cccs1 [Beispiel 64]	–	≥ 80	80	–
3.38	COCCNC(=S)N1CCOC1=N[C@@H](C)c1cccs1 [Beispiel 65]	–	≥ 80	80	mortality at 100 ppm [6]: ≥ 80%
3.98	C[C@H](N=C1OCCN1C(=S)NCC(F)(F)F)c1cccs1 [Beispiel 66]	–	≥ 80	80	–
–	Cn1cccc1CN=C1NCCO1 [Beispiel 80]	-0.09	–	–	–
–	c1coc(CN=C2NCCO2)c1 [Beispiel 90]	-0.23	–	–	mortality at 500 g/ha ([4]; in Brassica rapa): ≥ 80%
2.38	CNC(=S)N1CCOC1=NC(C)c1ccco1 (stereo not drawn) [Beispiel 96]	–	≥ 80	–	–
–	C[C@H](N=C1NCCS1)c1cccs1 [Beispiel 101]	0.54	–	–	–
–	CC(N=C1NCCO1)c1cc2ccccc2o1 (stereo not drawn) [Beispiel 103]	0.93	–	–	mortality at 500 g/ha ([4]; in Brassica rapa): ≥ 80%
–	CC(C)NC(=S)N1CCOC1=NCc1ccc(Cl)nc1 [Beispiel 187]	3.14	–	–	–
–	CC(N=C1NCCO1)c1ccnc(Cl)c1 (stereo not drawn) [Beispiel 194]	0.02	–	–	–

SMILES	chromatographic logP [3]	chromatographic logP [1]	mortality at 500 g/ha [4, 8] [%]	Wirkung [5] [%]	also measured
COCCNC(=S)N1CCOC1=NCc1cccn1C [Beispiel 83]	2.37	–	–	–	mortality at 100 g/ha [7]: ≥ 80%

Reference: patent publication EP2070923A1, “Insecticide iminoheterocycles” (priority 2007, dated 2009)
